As a reminder, the IC50 is the concentration at which inhibition is half-maximal.

The structures appear in SMILES notation.

Sequence of CCR2 (P41597 whole entry, species assumed): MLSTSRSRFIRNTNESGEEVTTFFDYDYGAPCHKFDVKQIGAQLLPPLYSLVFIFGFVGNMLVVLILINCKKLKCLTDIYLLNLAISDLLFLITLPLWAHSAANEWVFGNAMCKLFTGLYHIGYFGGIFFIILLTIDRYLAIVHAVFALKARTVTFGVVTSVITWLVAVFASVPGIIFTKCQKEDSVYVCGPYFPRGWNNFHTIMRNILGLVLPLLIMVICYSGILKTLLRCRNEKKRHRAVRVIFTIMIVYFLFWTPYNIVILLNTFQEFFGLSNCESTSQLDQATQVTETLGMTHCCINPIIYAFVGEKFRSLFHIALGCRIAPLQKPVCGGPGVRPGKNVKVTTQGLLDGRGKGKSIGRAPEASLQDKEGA

In this assay the target is CCR2 (Homo sapiens (Human), UniProt P41597). The assay is described as follows: Calcium activity on FLIPR Tetra in HEK-Gqi5 cells stably expressing CCR2. Conditions: FLIPR Tetra calcium assay. It counts as cell-based. The protocol:
HEK-Gqi5 cells stably expressing CCR2 were cultured in (DMEM high glucose, 10% FBS, 1% PSA, 400 μg/ml geneticin and 50 μg/ml hygromycin. Appropriate positive control chemokines (MCP-1, MIP1A or RANTES) was used as the positive control agonist for screening compound-induced calcium activity assayed on the FLIPR^Tetra. The drug plates were prepared in 384-well microplates using the EP3 and the MultiPROBE robotic liquid handling systems. Compounds were synthesized and tested for CCR2 activity.
Consider `O=S(=O)(Nc1cc(Cl)c(Cl)cc1NS(=O)(=O)c1ccc(Cl)s1)c1cccs1` [5-chloro-N-{4,5-dichloro-2-[(2-thienylsulfonyl)amino]phenyl}thiophene-2-sulfonamide], for which the “CCR2 % Antagonism” value is 89% and the IC50 amounted to 263 nM.
Take `O=S(=O)(Nc1cc(Cl)c(Cl)cc1NS(=O)(=O)c1cccs1)c1ccc(Cl)nc1` [6-chloro-N-{4,5-dichloro-2-[(2-thienylsulfonyl)amino]phenyl}pyridine-3-sulfonamide]: the “CCR2 % Antagonism” value is listed as 100% and the IC50 is 281 nM.
The like results for `Cc1cc(S(=O)(=O)Nc2cc(Cl)c(Cl)cc2NS(=O)(=O)c2cccs2)ccc1Br` [N-(2-{[(4-bromo-3-methylphenyl)sulfonyl]amino}-4,5-dichlorophenyl)thiophene-2-sulfonamide] were, in that order, 91% and 471 nM.
Take `O=S(=O)(Nc1cc(Cl)c(Cl)cc1NS(=O)(=O)c1ccc(F)cc1F)c1cccs1` [N-(4,5-dichloro-2-{[(2,4-difluorophenyl)sulfonyl]amino}phenyl)thiophene-2-sulfonamide]: the “CCR2 % Antagonism” value is on record as 89% and the IC50 came out at 451 nM.
The like results for `O=S(=O)(Nc1cc(Cl)c(Cl)cc1NS(=O)(=O)c1ccccc1F)c1cccs1` [N-(4,5-dichloro-2-{[(2-fluorophenyl)sulfonyl]amino}phenyl)thiophene-2-sulfonamide] were, in that order, 67% and 402 nM.
In the case of `O=S(=O)(Nc1cc(Cl)c(Cl)cc1NS(=O)(=O)c1cccs1)c1ccc(Cl)c(Cl)c1` [N-(4,5-dichloro-2-{[(3,4-dichlorophenyl)sulfonyl]amino}phenyl)thiophene-2-sulfonamide], the “CCR2 % Antagonism” value turned out to be 79% and the IC50 amounted to 394 nM.
On the same counts, the results for `O=S(=O)(Nc1cc(Cl)c(Cl)cc1NS(=O)(=O)c1cc(Cl)cc(Cl)c1O)c1cccs1` [N-(4,5-dichloro-2-{[(3,5-dichloro-2-hydroxyphenyl)sulfonyl]amino}phenyl)thiophene-2-sulfonamide] are 82% and 482 nM.
In the case of `O=S(=O)(Nc1cc(Cl)c(Cl)cc1NS(=O)(=O)c1cccc(Cl)c1F)c1cccs1` [N-(4,5-dichloro-2-{[(3-chloro-2-fluorophenyl)sulfonyl]amino}phenyl)thiophene-2-sulfonamide], the “CCR2 % Antagonism” value stood at 96% and the IC50 was 217 nM.
The like results for `O=S(=O)(Nc1cc(Cl)c(Cl)cc1NS(=O)(=O)c1cccs1)c1cccc(Cl)c1` [N-(4,5-dichloro-2-{[(3-chlorophenyl)sulfonyl]amino}phenyl)thiophene-2-sulfonamide] were, in that order, 90% and 391 nM.
With `O=S(=O)(Nc1cc(Cl)c(Cl)cc1NS(=O)(=O)c1ccc(Cl)cc1F)c1cccs1` [N-(4,5-dichloro-2-{[(4-chloro-2-fluorophenyl)sulfonyl]amino}phenyl)thiophene-2-sulfonamide], the “CCR2 % Antagonism” value is given as 94% and the IC50 amounted to 361 nM.
On the same counts, the results for `O=S(=O)(Nc1cc(Cl)c(Cl)cc1NS(=O)(=O)c1cccs1)c1ccc(F)cc1` [N-(4,5-dichloro-2-{[(4-fluorophenyl)sulfonyl]amino}phenyl)thiophene-2-sulfonamide] are 91% and 441 nM.
On the same counts, the results for `O=S(=O)(Nc1cc(Cl)ccc1NS(=O)(=O)c1c(Cl)cccc1Cl)c1cc2ccccc2o1` [N-(5-chloro-2-{[(2,6-dichlorophenyl)sulfonyl]amino}phenyl)-1-benzofuran-2-sulfonamide] are 89% and 478 nM.
Regarding `O=S(=O)(Nc1cc(Cl)ccc1NS(=O)(=O)c1c(F)cccc1F)c1cc2ccccc2o1` [N-(5-chloro-2-{[(2,6-difluorophenyl)sulfonyl]amino}phenyl)-1-benzofuran-2-sulfonamide], the “CCR2 % Antagonism” value is listed as 99% and the IC50 was 153 nM.
Regarding `Cc1ccc(S(=O)(=O)Nc2ccc(Cl)cc2NS(=O)(=O)c2cc3ccccc3o2)s1` [N-(5-chloro-2-{[(5-methyl-2-thienyl)sulfonyl]amino}phenyl)-1-benzofuran-2-sulfonamide], the “CCR2 % Antagonism” value is reported as 96% and the IC50 was found to be 339 nM.
The like results for `O=S(=O)(Nc1cccnc1NS(=O)(=O)c1cccs1)c1ccc(Cl)c(C(F)(F)F)c1` [N-[3-({[4-chloro-3-(trifluoromethyl)phenyl]sulfonyl}amino)pyridin-2-yl]thiophene-2-sulfonamide] were, in that order, 85% and 349 nM.
As for `O=S(=O)(Nc1cc(Cl)c(Cl)cc1NS(=O)(=O)c1cccs1)c1cccc(C(F)(F)F)c1` [N-[4,5-dichloro-2-({[3-(trifluoromethyl)phenyl]sulfonyl}amino)phenyl]thiophene-2-sulfonamide], the “CCR2 % Antagonism” value was determined as 88% and the IC50 stood at 306 nM.
For the molecule `O=S(=O)(Nc1cc(Cl)c(Cl)cc1NS(=O)(=O)c1cccs1)c1ccc(F)c(C(F)(F)F)c1` [N-[4,5-dichloro-2-({[4-fluoro-3-(trifluoromethyl)phenyl]sulfonyl}amino)phenyl]thiophene-2-sulfonamide], the “CCR2 % Antagonism” value amounted to 89% and the IC50 was 432 nM.
On the same counts, the results for `Cn1cnc(S(=O)(=O)Nc2ccc(Cl)cc2NS(=O)(=O)c2cc3ccccc3o2)c1` [N-{2-[(1-benzofuran-2-ylsulfonyl)amino]-4-chlorophenyl}-1-methyl-1H-imidazole-4-sulfonamide] are 110% and 423 nM.
On the same counts, the results for `Cn1ccc(S(=O)(=O)Nc2ccc(Cl)cc2NS(=O)(=O)c2cc3ccccc3o2)n1` [N-{2-[(1-benzofuran-2-ylsulfonyl)amino]-4-chlorophenyl}-1-methyl-1H-pyrazole-3-sulfonamide] are 96% and 185 nM.
The like results for `Cc1n[nH]c(C)c1S(=O)(=O)Nc1ccc(Cl)cc1NS(=O)(=O)c1cc2ccccc2o1` [N-{2-[(1-benzofuran-2-ylsulfonyl)amino]-4-chlorophenyl}-3,5-dimethyl-1H-pyrazole-4-sulfonamide] were, in that order, 108% and 183 nM.
On to `Cc1nn(C)c(Cl)c1S(=O)(=O)Nc1ccc(Cl)cc1NS(=O)(=O)c1cc2ccccc2o1` [N-{2-[(1-benzofuran-2-ylsulfonyl)amino]-4-chlorophenyl}-5-chloro-1,3-dimethyl-1H-pyrazole-4-sulfonamide], for which the “CCR2 % Antagonism” value came to 80% and the IC50 is 294 nM.
On to `O=S(=O)(Nc1cc(Cl)c(Cl)cc1NS(=O)(=O)c1cccs1)c1cc2ccccc2o1` [N-{4,5-dichloro-2-[(2-thienylsulfonyl)amino]phenyl}-1-benzofuran-2-sulfonamide], for which the “CCR2 % Antagonism” value turned out to be 100% and the IC50 amounted to 96 nM.
For the molecule `O=S(=O)(Nc1cc(Cl)c(Cl)cc1NS(=O)(=O)c1cc2ccccc2s1)c1cccs1` [N-{4,5-dichloro-2-[(2-thienylsulfonyl)amino]phenyl}-1-benzothiophene-2-sulfonamide], the “CCR2 % Antagonism” value turned out to be 94% and the IC50 was 494 nM.
Take `Cc1ccc(S(=O)(=O)Nc2cc(Cl)c(Cl)cc2NS(=O)(=O)c2cccs2)o1` [N-{4,5-dichloro-2-[(2-thienylsulfonyl)amino]phenyl}-5-methylfuran-2-sulfonamide]: the “CCR2 % Antagonism” value was found to be 95% and the IC50 was 311 nM.
For the molecule `O=S(=O)(Nc1ccc(Cl)cc1NS(=O)(=O)c1cccs1)c1cc2ccccc2o1` [N-{4-chloro-2-[(2-thienylsulfonyl)amino]phenyl}-1-benzofuran-2-sulfonamide], the “CCR2 % Antagonism” value worked out at 90% and the IC50 worked out at 145 nM.
Turning to `O=S(=O)(Nc1cc(Cl)ccc1NS(=O)(=O)c1cccs1)c1cc2ccccc2o1` [N-{5-chloro-2-[(2-thienylsulfonyl)amino]phenyl}-1-benzofuran-2-sulfonamide], the “CCR2 % Antagonism” value came to 86% and the IC50 came out at 20 nM.
Regarding `COC(=O)c1sccc1S(=O)(=O)Nc1ccc(Cl)cc1NS(=O)(=O)c1cc2ccccc2o1` [methyl 3-[({2-[(1-benzofuran-2-ylsulfonyl)amino]-4-chlorophenyl}amino)sulfonyl]thiophene-2-carboxylate], the “CCR2 % Antagonism” value is reported as 96% and the IC50 turned out to be 246 nM.

(Values after patent publication US9603834B2, “1,2- bis-sulfonamide derivatives as chemokine receptor modulators” (Allergan, Inc., priority 2010, dated 2017).)
